According to PMC8617031, “Development of a BCL-xL and BCL-2 dual degrader with improved anti-leukemic activity,” (Nature Communications, 2021):
Several values for one entry are separate records, joined by “and”; a condition that tells them apart may be missing. Equal values may be shown once. Read-outs that look alike come from different tables or passages of the source.

Assays:
Assay type in all cases: cell-based, human
[1] = system: BCL-xL/PROTAC/VCB ternary complex (HiBit-BCL-xL, HaloTag-VHL); assay: NanoBRET intracellular ternary complex formation in 293T cells, BCL-xL; conditions: for NanoBRET signal (610/450 ratio, background-subtracted), Ave, Bcl-xl: Ave of Read1 and Read2, per replicate well; for NanoBRET signal (610/450 ratio, background-subtracted), Read1, Bcl-xl / NanoBRET signal (610/450 ratio, background-subtracted), Read2, Bcl-xl: individual replicate wells
Description: (§1) Plasmids HaloTag-VHL (Cat. No. CS1679C155) and CMV HiBit (Cat. No. CS1956B03) were purchased from Promega. HiBit-BCL-xL and HiBit-BCL-2 were constructed previously. The two mutants (HiBit-BCL-xL-K157-only and HiBit-BCL-xL-K-ko) were constructed through Gibson assembly method. The primer pair (5′-[…]-3′ and 5′-[…]c[…]-3′) and the template Flag-BCL-xL-K157-only or Flag-BCL-xL-K-ko (pDL2129)[2] were used to clone the BCL-xL-K157-only-containing and BCL-xL-K-ko-containing fragments, respectively. The primer pair (5′-[…]g[…]-3′ and 5′-[…]-3′) and pBit3.1-N (Cat. No. N2361, Promega) were used to clone the vector-containing fragment. The PCR fragments were assembled using NEBuilder® HiFi DNA Assembly Master Mix (Cat. No. E2621, NEB, Ipswich, MA, USA). DNA sequences in all these plasmids were authenticated by automatic sequencing. […] After 24 h, 2 × 10^4 transfected cells were seeded into white 96-well tissue culture plates in Gibco™ Opti-MEM™ I Reduced Serum Medium, No Phenol Red (Cat. No. 11-058-021, Fisher) containing 4% FBS with or without HaloTag NanoBRET 618 Ligand (Cat. No. PRN1662, Promega) and incubated overnight at 37 °C, 5% CO2. The following day, serial diluted compounds were added into the medium and plates were incubated at 37 °C, 5% CO2, for 6 h. After treatment, NanoBRET Nano-Glo Substrate (cat. no. N1662, Promega) was added into the medium, and the contents were mixed by shaking the plate for 30 s before measuring donor and acceptor signals on Biotek plate reader. Dual-filtered luminescence was collected with a 450/50 nm bandpass filter (donor, NanoBiT-BCL-XL protein or NanoBiT-BCL-2 protein) and a 610-nm longpass filter (acceptor, HaloTag NanoBRET ligand) using an integration time of 0.5 s. mBRET ratios were calculated following the NanoBRET™ Nano-Glo® Detection System (Cat. No. N1662, Promega).

[2] = system: BCL-2/PROTAC/VCB ternary complex (HiBit-BCL-2, HaloTag-VHL); assay: NanoBRET intracellular ternary complex formation in 293T cells, BCL-2; conditions: for NanoBRET signal (610/450 ratio, background-subtracted), Ave, Bcl-2: Ave of Read1 and Read2, per replicate well; for NanoBRET signal (610/450 ratio, background-subtracted), Read1, Bcl-2 / NanoBRET signal (610/450 ratio, background-subtracted), Read2, Bcl-2: individual replicate wells
Description: as §1

Kasumi-1 cells = assay: Viability (MTS) of Kasumi-1 AML cells; conditions: for IC50: 72 h
[3] = 3.90625 nM (plate column 2), Fig. 7a
[4] = 7.8125 nM (plate column 3), Fig. 7a
[5] = 15.625 nM (plate column 4), Fig. 7a
[6] = 31.25 nM (plate column 5), Fig. 7a
[7] = 62.5 nM (plate column 6), Fig. 7a
[8] = 125 nM (plate column 7), Fig. 7a
[9] = 250 nM (plate column 8), Fig. 7a
[10] = 500 nM (plate column 9), Fig. 7a
[11] = 1000 nM (plate column 10), Fig. 7a
[12] = 2000 nM = 2U (plate column 11), Fig. 7a
[13] = 4000 nM = 4U (plate column 12), Fig. 7a

Row | SMILES | Luminescence (raw plate reading) (Kasumi-1 cells; [3]) | Luminescence (raw plate reading) (Kasumi-1 cells; [4]) | Luminescence (raw plate reading) (Kasumi-1 cells; [5]) | Luminescence (raw plate reading) (Kasumi-1 cells; [6]) | Luminescence (raw plate reading) (Kasumi-1 cells; [7]) | Luminescence (raw plate reading) (Kasumi-1 cells; [8]) | Luminescence (raw plate reading) (Kasumi-1 cells; [9]) | Luminescence (raw plate reading) (Kasumi-1 cells; [10]) | Luminescence (raw plate reading) (Kasumi-1 cells; [11]) | Luminescence (raw plate reading) (Kasumi-1 cells; [12]) | Luminescence (raw plate reading) (Kasumi-1 cells; [13]) | Luminescence normalised to mean of the 0 concentration wells (= 100), viability (Kasumi-1 cells; 3.90625 (nM), Fig. 7a) | Luminescence normalised to mean of the 0 concentration wells (= 100), viability (Kasumi-1 cells; 7.8125 (nM), Fig. 7a) | Luminescence normalised to mean of the 0 concentration wells (= 100), viability (Kasumi-1 cells; 15.625 (nM), Fig. 7a) | Luminescence normalised to mean of the 0 concentration wells (= 100), viability (Kasumi-1 cells; 31.25 (nM), Fig. 7a) | Luminescence normalised to mean of the 0 concentration wells (= 100), viability (Kasumi-1 cells; 62.5 (nM), Fig. 7a) | Luminescence normalised to mean of the 0 concentration wells (= 100), viability (Kasumi-1 cells; 125 (nM), Fig. 7a) | Luminescence normalised to mean of the 0 concentration wells (= 100), viability (Kasumi-1 cells; 250 (nM), Fig. 7a) | Luminescence normalised to mean of the 0 concentration wells (= 100), viability (Kasumi-1 cells; 500 (nM), Fig. 7a) | Luminescence normalised to mean of the 0 concentration wells (= 100), viability (Kasumi-1 cells; 1000 (nM), Fig. 7a) | also measured
1 | Cc1ncsc1-c1ccc(C(C)NC(=O)C2CC(O)CN2C(=O)C(NC(=O)CCCCCCCCCC(=O)N2CCN(CC3(C)CCC(c4ccc(Cl)cc4)=C(CN4CCN(c5ccc(C(=O)NS(=O)(=O)c6ccc(NC(CCN7CCOCC7)CSc7ccccc7)c(S(=O)(=O)C(F)(F)F)c6)cc5)CC4)C3)CC2)C(C)(C)C)cc1 (mixture of isomers) [319-C11] |  |  |  |  |  |  |  |  |  |  |  |  |  |  |  |  |  |  |  |  | NanoBRET signal (610/450 ratio, background-subtracted), Ave, Bcl-xl ([1]; 0.333 uM): 5.756 and 6.621 and 6.037; NanoBRET signal (610/450 ratio, background-subtracted), Read1, Bcl-xl ([1]; 0.333 uM): 6.07 and 6.538 and 6.1116; NanoBRET signal (610/450 ratio, background-subtracted), Read2, Bcl-xl ([1]; 0.333 uM): 5.442 and 6.704 and 5.963; NanoBRET signal (610/450 ratio, background-subtracted), Ave, Bcl-xl ([1]; 1 uM): 5.696 and 5.538 and 6.106; NanoBRET signal (610/450 ratio, background-subtracted), Read1, Bcl-xl ([1]; 1 uM): 5.861 and 5.46 and 6.469; NanoBRET signal (610/450 ratio, background-subtracted), Read2, Bcl-xl ([1]; 1 uM): 5.532 and 5.616 and 5.743; NanoBRET signal (610/450 ratio, background-subtracted), Ave, Bcl-xl ([1]; 3 uM): 5.386 and 5.324 and 6.583; NanoBRET signal (610/450 ratio, background-subtracted), Read1, Bcl-xl ([1]; 3 uM): 5.512 and 5.444 and 6.844; NanoBRET signal (610/450 ratio, background-subtracted), Read2, Bcl-xl ([1]; 3 uM): 5.259 and 5.204 and 6.3216; NanoBRET signal (610/450 ratio, background-subtracted), Ave, Bcl-2 ([2]; 0.333 uM): 4.383 and 4.153 and 4.737; NanoBRET signal (610/450 ratio, background-subtracted), Read1, Bcl-2 ([2]; 0.333 uM): 4.892 and 4.708 and 4.979; NanoBRET signal (610/450 ratio, background-subtracted), Read2, Bcl-2 ([2]; 0.333 uM): 3.874 and 3.599 and 4.495; NanoBRET signal (610/450 ratio, background-subtracted), Ave, Bcl-2 ([2]; 1 uM): 4.831 and 5.865 and 5.494; NanoBRET signal (610/450 ratio, background-subtracted), Read1, Bcl-2 ([2]; 1 uM): 4.901 and 5.9757 and 5.389; NanoBRET signal (610/450 ratio, background-subtracted), Read2, Bcl-2 ([2]; 1 uM): 4.762 and 5.754 and 5.599; NanoBRET signal (610/450 ratio, background-subtracted), Ave, Bcl-2 ([2]; 3 uM): 4.755 and 5.241 and 5.369; NanoBRET signal (610/450 ratio, background-subtracted), Read1, Bcl-2 ([2]; 3 uM): 5 and 5.455 and 5.5909; NanoBRET signal (610/450 ratio, background-subtracted), Read2, Bcl-2 ([2]; 3 uM): 4.5106 and 5.027 and 5.1462
2 | CC1(C)CCC(CN2CCN(c3ccc(C(=O)NS(=O)(=O)c4ccc(NCC5CCOCC5)c([N+](=O)[O-])c4)c(Oc4cnc5[nH]ccc5c4)c3)CC2)=C(c2ccc(Cl)cc2)C1 [ABT199, venetoclax] | 505600 and 468580 and 525678 and 543318 | 504424 and 455660 and 487360 and 542979 | 489014 and 455068 and 501527 and 480804 | 466073 and 441818 and 471956 and 491899 | 440585 and 409812 and 377802 and 367500 | 397154 and 357971 and 355935 and 386744 | 359551 and 316363 and 300748 and 321366 | 315682 and 289875 and 281016 and 292587 | 293868 and 256148 and 279970 and 273769 | 258049 and 207791 and 210071 and 198590 | 180705 and 155931 and 141587 and 133830 | 73.8707 and 68.4619 and 76.8042 and 79.3815 | 73.6989 and 66.5743 and 71.2058 and 79.332 | 71.4474 and 66.4878 and 73.2757 and 70.2479 | 68.0956 and 64.5519 and 68.9552 and 71.869 | 64.3717 and 59.8756 and 55.1988 and 53.6936 | 58.0262 and 52.3014 and 52.0039 and 56.5053 | 52.5322 and 46.2223 and 43.9408 and 46.9532 | 46.1228 and 42.3522 and 41.0579 and 42.7485 | 42.9356 and 37.4245 and 40.905 and 39.9991 | Luminescence normalised to mean of the 0 concentration wells (= 100), viability (Kasumi-1 cells; 2000 (nM, 2U), Fig. 7a): 37.7023 and 30.3593 and 30.6924 and 29.015; Luminescence normalised to mean of the 0 concentration wells (= 100), viability (Kasumi-1 cells; 4000 (nM, 4U), Fig. 7a): 26.4019 and 22.7823 and 20.6866 and 19.5532; IC50 (Kasumi-1 cells; Homo sapiens, Kasumi 1, Fig. 7a, read-out: IC50, viability of Kasumi-1 AML cells): 867 nM; IC50 (Kasumi-1 cells; Homo sapiens, Kasumi 1, Fig. 7c, read-out: IC50, viability of Kasumi-1 cells): 1130 nM
3 | Cc1c(-c2c(-c3ccc(F)o3)sc3ncnc(O[C@H](Cc4ccccc4OCc4ccnn4CC(F)(F)F)C(=O)O)c23)ccc(OCCN2CCN(C)CC2)c1Cl [S63845] | 585765 and 593361 and 588702 and 615617 | 614886 and 587762 and 581843 and 642033 | 585793 and 568144 and 557931 and 596587 | 583012 and 572945 and 570605 and 624151 | 545426 and 545383 and 550949 and 588219 | 511944 and 516519 and 502413 and 546675 | 434681 and 438403 and 429749 and 470053 | 365024 and 363596 and 364210 and 384218 | 263752 and 271433 and 266762 and 285013 | 165813 and 178184 and 172580 and 186041 | 112826 and 107734 and 101511 and 111059 | 85.5833 and 86.6931 and 86.0124 and 89.9448 | 89.838 and 85.875 and 85.0102 and 93.8043 | 85.5874 and 83.0087 and 81.5166 and 87.1644 | 85.181 and 83.7102 and 83.3683 and 91.1917 | 79.6895 and 79.6832 and 80.4965 and 85.9418 | 74.7976 and 75.4661 and 73.4051 and 79.872 | 63.5091 and 64.0529 and 62.7885 and 68.6771 | 53.3319 and 53.1232 and 53.2129 and 56.1362 | 38.5355 and 39.6577 and 38.9753 and 41.6419 | Luminescence normalised to mean of the 0 concentration wells (= 100), viability (Kasumi-1 cells; 2000 (nM, 2U), Fig. 7a): 24.2261 and 26.0336 and 25.2148 and 27.1815; Luminescence normalised to mean of the 0 concentration wells (= 100), viability (Kasumi-1 cells; 4000 (nM, 4U), Fig. 7a): 16.4845 and 15.7405 and 14.8313 and 16.2263; IC50 (Kasumi-1 cells; Fig. 7a, read-out: IC50, viability of Kasumi-1 AML cells): 527 nM
